Molecular target: T1, LHRH rat pituitary receptor (Rattus norvegicus, UniProt P30969)
T1 construct: from tissue; host or cells: rat pituitary
T1 sequence (P30969 1-327): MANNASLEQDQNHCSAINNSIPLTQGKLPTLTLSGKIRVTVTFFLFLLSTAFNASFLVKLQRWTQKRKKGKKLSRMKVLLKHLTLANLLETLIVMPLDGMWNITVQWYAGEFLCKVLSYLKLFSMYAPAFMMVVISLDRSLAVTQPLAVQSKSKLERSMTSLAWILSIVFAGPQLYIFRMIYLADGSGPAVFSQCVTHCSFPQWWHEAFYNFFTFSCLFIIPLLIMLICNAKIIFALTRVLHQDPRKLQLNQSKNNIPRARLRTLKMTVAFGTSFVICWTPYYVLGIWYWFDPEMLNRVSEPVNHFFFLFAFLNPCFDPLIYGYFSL
Assay: LHRH rat pituitary receptor binding (pKI)
Settings: negative logarithm of the equilibrium dissociation constants, Table 1, read-out: receptor binding affinity (pKI) (converted)
Method: Representative compounds of the present invention were evaluated in in vitro tests for LHRH rat pituitary receptor binding (pKI) and for LH inhibition from rat pituitary cells for antagonist potency (pA2). The tests employed the methods detailed in F. Haviv, et al. J. Med. Chem., 32: 2340-2344 (1989). The receptor binding affinity (pKI) is the negative logarithm of the equilibrium dissociation constants.

| SMILES | Ki [nM] |
| --- | --- |
| CCCN(C)[C@H]1C[C@@H](C)O[C@@H](O[C@@H]2[C@@H](C)[C@H](O[C@H]3C[C@@](C)(OC)[C@@H](O)[C@H](C)O3)[C@@H](C)C(=O)O[C@H](CC)[C@@]3(C)OC(=O)N(CCNc4ccc(Cl)cc4)[C@@H]3[C@@H](C)C(=O)[C@H](C)C[C@@]2(C)OC)[C@@H]1O [Example 60, 3'-N-Desmethyl-3'-N-propyl-11-deoxy-11-[carboxy-(4-chloroanilinoethylamino)]-6-O-methyl-erythromycin A 11,12-(cyclic carbamate)] | 2.69 |
| CC[C@H]1OC(=O)[C@H](C)[C@@H](O[C@H]2C[C@@](C)(OC)[C@@H](O)[C@H](C)O2)[C@H](C)[C@@H](O[C@@H]2O[C@H](C)C[C@H](N(C)C3CCCC3)[C@H]2O)[C@](C)(OC)C[C@@H](C)C(=O)[C@H](C)[C@H]2N(CCNc3ccc(Cl)cc3)C(=O)O[C@]12C [Example 61] | 2.69 |
| CC[C@H]1OC(=O)[C@H](C)[C@@H](O[C@H]2C[C@@](C)(OC)[C@@H](O)[C@H](C)O2)[C@H](C)[C@@H](O[C@@H]2O[C@H](C)C[C@H](N(C)Cc3ncc[nH]3)[C@H]2O)[C@](C)(OC)C[C@@H](C)C(=O)[C@H](C)[C@H]2N(CCc3ccc(Cl)c(Cl)c3)C(=O)O[C@]12C [Example 63, 3'-N-Desmethyl-3'-N-(2-imidazolyl)methyl-11-deoxy-11-[carboxy-(3,4-dichlorophenethylamino)]-6-O-methyl-erythromycin A 11,12-(cyclic carbamate)] | 7.41 |
| CC[C@H]1OC(=O)[C@H](C)[C@@H](O[C@H]2C[C@@](C)(OC)[C@@H](O)[C@H](C)O2)[C@H](C)[C@@H](O[C@@H]2O[C@H](C)C[C@H](N(C)Cc3cccnc3)[C@H]2O)[C@](C)(OC)C[C@@H](C)C(=O)[C@H](C)[C@H]2N(CCc3ccc(Cl)c(Cl)c3)C(=O)O[C@]12C [Example 64, 3'-N-Desmethyl-3'-N-(3-pyridyl)methyl-11-deoxy-11-[carboxy-(3,4-dichlorophenethylamino)]-6-O-methyl-erythromycin A 11,12-(cyclic carbamate)] | 6.92 |
| CC[C@H]1OC(=O)[C@H](C)[C@@H](O[C@H]2C[C@@](C)(OC)[C@@H](O)[C@H](C)O2)[C@H](C)[C@@H](O[C@@H]2O[C@H](C)C[C@H](N(C)Cc3ccccn3)[C@H]2O)[C@](C)(OC)C[C@@H](C)C(=O)[C@H](C)[C@H]2N(CCc3ccc(Cl)c(Cl)c3)C(=O)O[C@]12C [Example 65, 3'-N-Desmethyl-3'-N-(2-pyridyl)methyl-11-deoxy-11-[carboxy-(3,4-dichlorophenethylamino)]-6-O-methyl-erythromycin A 11,12-(cyclic carbamate)] | 7.41 |
| CC[C@H]1OC(=O)[C@H](C)[C@@H](O[C@H]2C[C@@](C)(OC)[C@@H](O)[C@H](C)O2)[C@H](C)[C@@H](O[C@@H]2O[C@H](C)C[C@H](N(C)Cc3ccc([N+](=O)[O-])s3)[C@H]2O)[C@](C)(OC)C[C@@H](C)C(=O)[C@H](C)[C@H]2N(CCc3ccc(Cl)c(Cl)c3)C(=O)O[C@]12C [Example 66, 3'-N-Desmethyl-3'-N-[(5-nitro-2-thienyl]methyl-11-deoxy-11-[carboxy-(3,4-dichlorophenethylamino)]-6-O-methyl-erythromycin A 11,12-(cyclic carbamate)] | 1.38 |
| CC[C@H]1OC(=O)[C@H](C)[C@@H](O[C@H]2C[C@@](C)(OC)[C@@H](O)[C@H](C)O2)[C@H](C)[C@@H](O[C@@H]2O[C@H](C)C[C@H](N(C)Cc3ccc(-c4ccc(Cl)cc4)o3)[C@H]2O)[C@](C)(OC)C[C@@H](C)C(=O)[C@H](C)[C@H]2N(CCc3ccc(Cl)c(Cl)c3)C(=O)O[C@]12C [Example 67, 3'-N-Desmethyl-3'-N-[5-(4-chlorophenyl)-2-furylmethyl]-11-deoxy-11-[carboxy-(3,4-dichlorophenethylamino)]-6-O-methyl-erythromycin A 11,12-(cyclic carbamate)] | 7.76 |
| CC[C@H]1OC(=O)[C@H](C)[C@@H](O[C@H]2C[C@@](C)(OC)[C@@H](O)[C@H](C)O2)[C@H](C)[C@@H](O[C@@H]2O[C@H](C)C[C@H](N(C)Cc3ccc([N+](=O)[O-])o3)[C@H]2O)[C@](C)(OC)C[C@@H](C)C(=O)[C@H](C)[C@H]2N(CCc3ccc(Cl)c(Cl)c3)C(=O)O[C@]12C [Example 68, 3'-N-Desmethyl-3'-N-[5-nitro-2-furylmethyl]-11-deoxy-11-[carboxy-(3,4-dichlorophenethylamino)]-6-O-methyl-erythromycin A 11,12-(cyclic carbamate)] | 5.13 |
| CC[C@H]1OC(=O)[C@H](C)[C@@H](O[C@H]2C[C@@](C)(OC)[C@@H](O)[C@H](C)O2)[C@H](C)[C@@H](O[C@@H]2O[C@H](C)C[C@H](N(C)CC3CC(OC)OC3OC)[C@H]2O)[C@](C)(OC)C[C@@H](C)C(=O)[C@H](C)[C@H]2N(CCc3ccc(Cl)c(Cl)c3)C(=O)O[C@]12C (stereo partly shown) [Example 69, 3'-N-Desmethyl-3'-N-[2,5-dimethoxy-3-tetrahydrofurylmethyl]-11-deoxy-11-[carboxy-(3,4-dichlorophenethylamino)]-6-O-methyl-erythromycin A 11,12-(cycliccarbamate)] | 6.17 |
| CC[C@H]1OC(=O)[C@H](C)[C@@H](O[C@H]2C[C@@](C)(OC)[C@@H](O)[C@H](C)O2)[C@H](C)[C@@H](O[C@@H]2O[C@H](C)C[C@H](N(C)Cc3cccc(C)n3)[C@H]2O)[C@](C)(OC)C[C@@H](C)C(=O)[C@H](C)[C@H]2N(CCc3ccc(Cl)c(Cl)c3)C(=O)O[C@]12C [Example 70, 3'-N-Desmethyl-3'-N-[6-methyl-2-pyridylmethyl]-11-deoxy-11-[carboxy-(3,4-dichlorophenethylamino)]-6-O-methyl-erythromycin A 11,12-(cyclic carbamate)] | 5.89 |
| CC[C@H]1OC(=O)[C@H](C)[C@@H](O[C@H]2C[C@@](C)(OC)[C@@H](O)[C@H](C)O2)[C@H](C)[C@@H](O[C@@H]2O[C@H](C)C[C@H](N(C)CCCC(F)(F)F)[C@H]2O)[C@](C)(OC)C[C@@H](C)C(=O)[C@H](C)[C@H]2N(CCc3ccc(Cl)c(Cl)c3)C(=O)O[C@]12C [Example 71, 3'-N-Desmethyl-3'-N-(4,4,4-trifluorobutyl)-11-deoxy-11-[carboxy-(3,4-dichlorophenethylamino)]-6-O-methyl-erythromycin A 11,12-(cyclic carbamate)] | 6.17 |

Continued, values first:

| Ki [nM] | SMILES |
| --- | --- |
| 0.676 | CC[C@H]1OC(=O)[C@H](C)[C@@H](O[C@H]2C[C@@](C)(OC)[C@@H](O)[C@H](C)O2)[C@H](C)[C@@H](O[C@@H]2O[C@H](C)C[C@H](N(C)Cc3ccc4ccccc4c3Br)[C@H]2O)[C@](C)(OC)C[C@@H](C)C(=O)[C@H](C)[C@H]2N(CCc3ccc(Cl)c(Cl)c3)C(=O)O[C@]12C [Example 72, 3'-N-Desmethyl-3'-N-(1-bromo-2-napthylmethyl)-11-deoxy-11-[carboxy-(3,4-dichlorophenethylamino)]-6-O-methyl-erythromycin A 11,12-(cyclic carbamate)] |
| 0.214 | CC[C@H]1OC(=O)[C@H](C)[C@@H](O[C@H]2C[C@@](C)(OC)[C@@H](O)[C@H](C)O2)[C@H](C)[C@@H](O[C@@H]2O[C@H](C)C[C@H](N(C)Cc3ccc(C)c4ccccc34)[C@H]2O)[C@](C)(OC)C[C@@H](C)C(=O)[C@H](C)[C@H]2N(CCc3ccc(Cl)c(Cl)c3)C(=O)O[C@]12C [Example 73, 3'-N-Desmethyl-3'-N-(4-methyl-1-napthylmethyl)-11-deoxy-11-[carboxy-(3,4-dichlorophenethylamino)]-6-O-methyl-erythromycin A 11,12-(cyclic carbamate)] |
| 3.16 | CC[C@H]1OC(=O)[C@H](C)[C@@H](O[C@H]2C[C@@](C)(OC)[C@@H](O)[C@H](C)O2)[C@H](C)[C@@H](O[C@@H]2O[C@H](C)C[C@H](N(C)Cc3ccc(N(C)C)c4ccccc34)[C@H]2O)[C@](C)(OC)C[C@@H](C)C(=O)[C@H](C)[C@H]2N(CCc3ccc(Cl)c(Cl)c3)C(=O)O[C@]12C [Example 74, 3'-N-Desmethyl-3'-N-(4-dimethylamino-1-napthylmethyl)-11-deoxy-11-[carboxy-(3,4-dichlorophenethylamino)]-6-O-methyl-erythromycin A 11,12-(cyclic carbamate)] |
| 1.26 | CC[C@H]1OC(=O)[C@H](C)[C@@H](O[C@H]2C[C@@](C)(OC)[C@@H](O)[C@H](C)O2)[C@H](C)[C@@H](O[C@@H]2O[C@H](C)C[C@H](N(C)Cc3ccco3)[C@H]2O)[C@](C)(OC)C[C@@H](C)C(=O)[C@H](C)[C@H]2N(CCc3ccc(Cl)c(Cl)c3)C(=O)O[C@]12C [Example 75, 3'-N-Desmethyl-3'-N-(2-furylmethyl)-11-deoxy-11-[carboxy-(3,4-dichlorophenethylamino)]-6-O-methyl-erythromycin A 11,12-(cyclic carbamate)] |
| 9.12 | CC[C@H]1OC(=O)[C@H](C)[C@@H](O[C@H]2C[C@@](C)(OC)[C@@H](O)[C@H](C)O2)[C@H](C)[C@@H](O[C@@H]2O[C@H](C)C[C@H](N(C)CCCc3ccncc3)[C@H]2O)[C@](C)(OC)C[C@@H](C)C(=O)[C@H](C)[C@H]2N(CCc3ccc(Cl)c(Cl)c3)C(=O)O[C@]12C [Example 76, 3'-N-Desmethyl-3'-N-[3-(4-pyridyl)propyl]-11-deoxy-11-[carboxy-(3,4-dichlorophenethylamino)]-6-O-methyl-erythromycin A 11,12-(cyclic carbamate)] |
